How the values were obtained:
[1] = molecular target: T1, catalytic domain (JH1, amino acids 826-1132) of human JAK2 (Homo sapiens, UniProt O60674); test: JAK2 LanthaScreen JH1 binding assay; settings: 50 nM tracer, 2 hours at 25° C., read-out: JH1 BIND IC50
T1 construct: catalytic domain (JH1, amino acids 826-1132) of human JAK2; FLAG (N); purchased Carna Biosciences 08-445-20N; host or cells: baculovirus expression system
Procedure, shortened: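 Binding of compounds to biotinylated, FLAG-tagged human JAK2 JH1 (aa 826-1132; 1.5 nM) was measured by LanthaScreen TR-FRET with 50 nM fluorescent tracer and 0.5 nM streptavidin-Tb, in pH 7.5 Tris buffer. Non-specific binding was defined with 2 mM ATP. After 2 h at 25 °C, IC50 was fitted from four-parameter dose-response curves.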

[2] = molecular target: T2, pseudo-kinase domain (JH2, amino-acids 536-812 with 3 surface mutations W659A, W777A, F794H) of human Wild Type JAK2 (Homo sapiens, UniProt O60674, F794H/W659A/W777A); test: JAK2 LanthaScreen JH2-WT binding assay; settings: 50 nM tracer, 1 hour at 25° C., read-out: JH2 BIND WT IC50
T2 construct: pseudo-kinase domain (JH2, amino-acids 536-812 with 3 surface mutations W659A, W777A, F794H); His (C); Avi (biotinylated) (C); purchased BPS Bioscience 79463; host or cells: baculovirus expression system
T2 sequence (O60674 536-812 W659A/W777A/F794H): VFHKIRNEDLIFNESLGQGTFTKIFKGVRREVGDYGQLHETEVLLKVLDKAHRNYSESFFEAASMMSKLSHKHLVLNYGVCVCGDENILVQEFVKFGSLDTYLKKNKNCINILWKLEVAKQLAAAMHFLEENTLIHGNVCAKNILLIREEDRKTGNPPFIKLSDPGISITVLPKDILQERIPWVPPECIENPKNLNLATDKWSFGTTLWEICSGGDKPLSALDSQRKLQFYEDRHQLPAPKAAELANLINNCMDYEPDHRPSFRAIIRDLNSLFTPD
Procedure, shortened: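 TR-FRET tracer displacement: 0.145 nM biotinylated JH2 protein, 50 nM fluorescent tracer, 0.25 nM streptavidin-Tb, compound dilution series; 50 mM Tris pH 7.5, 10 mM MgCl2, 5 mM DTT; 1 h, 25° C. Non-specific binding with 2 mM ATP. IC50 by 4-parameter fit.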

[3] = molecular target: T3, pseudo-kinase domain (JH2, amino-acids 536-812 with 3 surface mutations W659A, W777A, F794H) of human V617F mutant JAK2 (Homo sapiens, UniProt O60674, F794H/V617F/W659A/W777A); test: JAK2 LanthaScreen JH2-V617F binding assay; settings: 50 nM tracer, 1 hour at 25° C., read-out: JH2 BIND V617F IC50
T3 construct: pseudo-kinase domain (JH2, amino-acids 536-812 with 3 surface mutations W659A, W777A, F794H); His (C); Avi (biotinylated) (C); purchased BPS Bioscience 79498; host or cells: baculovirus expression system
T3 sequence (O60674 536-812 V617F/W659A/W777A/F794H): as the sequence (O60674 536-812 W659A/W777A/F794H) above, with V82F counted along it
Procedure, shortened: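 Binding was measured as TR-FRET displacement of 50 nM tracer from 0.26 nM biotinylated His-Avi protein, incubated one hour at 25° C; IC50 from a four-parameter fit.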

T1 sequence (O60674 826-1132): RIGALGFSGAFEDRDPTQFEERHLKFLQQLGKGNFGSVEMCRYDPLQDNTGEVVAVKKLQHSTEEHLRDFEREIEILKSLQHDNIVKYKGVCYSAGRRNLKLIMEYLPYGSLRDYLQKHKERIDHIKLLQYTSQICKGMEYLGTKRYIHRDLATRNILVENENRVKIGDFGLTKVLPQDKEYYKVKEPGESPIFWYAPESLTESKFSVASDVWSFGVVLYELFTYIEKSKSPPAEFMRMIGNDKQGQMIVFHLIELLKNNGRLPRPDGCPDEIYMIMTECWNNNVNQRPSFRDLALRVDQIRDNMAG

SMILES	IC50 [1]	IC50 [2]	IC50 [3]
COC(=O)N[C@@H]1CC[C@@H](n2c(=O)nc(OC)c3cnc4[nH]c(-c5cnn(C)c5)c(-c5ccc6c(cnn6C(C)C)c5)c4c32)C1 [Example 40, Methyl ((1R,3R)-3-(9-(1-isopropyl-1H-indazol-5-yl)-4-methoxy-8-(1-methyl-1H-pyrazol-4-yl)-2-oxo-2,7-dihydro-1H-pyrrolo[3′,2′:5,6]pyrido[4,3-d]pyrimidin-1-yl)cyclopentyl)carbamate]	> 1 µM	0.01 to 0.1 µM	0.1 to 0.5 µM
COC(=O)N[C@@H]1CC[C@@H](n2c(=O)nc(N)c3cnc4[nH]c(-c5cnn(C)c5)c(-c5ccc6c(cnn6C(C)C)c5)c4c32)C1 [Example 41, Methyl ((1R,3R)-3-(4-amino-9-(1-isopropyl-1H-indazol-5-yl)-8-(1-methyl-1H-pyrazol-4-yl)-2-oxo-2,7-dihydro-1H-pyrrolo[3′,2′:5,6]pyrido[4,3-d]pyrimidin-1-yl)cyclopentyl)carbamate]	0.5 to 1 µM	≤ 0.01 µM	≤ 0.01 µM
CNc1nc(=O)n([C@@H]2CC[C@@H](NC(=O)OC)C2)c2c1cnc1[nH]c(-c3cnn(C)c3)c(-c3ccc4c(cnn4C(C)C)c3)c12 [Example 42, Methyl ((1R,3R)-3-(9-(1-isopropyl-1H-indazol-5-yl)-8-(1-methyl-1H-pyrazol-4-yl)-4-(methylamino)-2-oxo-2,7-dihydro-1H-pyrrolo[3′,2′:5,6]pyrido[4,3-d]pyrimidin-1-yl)cyclopentyl)carbamate]	> 1 µM	0.01 to 0.1 µM	0.01 to 0.1 µM
COC(=O)N[C@@H]1CC[C@@H](n2c(=O)nc(N(C)C)c3cnc4[nH]c(-c5cnn(C)c5)c(-c5ccc6c(cnn6C(C)C)c5)c4c32)C1 [Example 43, Methyl ((1R,3R)-3-(4-(dimethylamino)-9-(1-isopropyl-1H-indazol-5-yl)-8-(1-methyl-1H-pyrazol-4-yl)-2-oxo-2,7-dihydro-1H-pyrrolo[3′,2′:5,6]pyrido[4,3-d]pyrimidin-1-yl)cyclopentyl)carbamate]	> 1 µM	0.1 to 0.5 µM	0.1 to 0.5 µM
